According to the NIST ThermoML archive (doi:10.1016/j.jct.2010.11.012):

Assay: xn = mol fraction of the nth substance listed
Conditions: Liquid, Bellows volumetry

CCCC [butane] + O=C=O
mass density [kg/m3]
Conditions	280 K	300 K	320 K	340 K	360 K
3000 kPa, x2 = 0.2322	630.31	–	–	–	–
5000 kPa, x2 = 0.2322	633.96	–	575.82	–	–
5000 kPa, x2 = 0.4794	680.75	639.52	–	–	–
5000 kPa, x2 = 0.715	743.91	–	–	–	–
10000 kPa, x2 = 0.2322	642.11	–	589.62	–	527.83
10000 kPa, x2 = 0.4794	692.87	657.02	616.31	569.54	511.93
10000 kPa, x2 = 0.715	764.37	–	634.09	–	–
20000 kPa, x2 = 0.2322	656.07	–	611.12	–	561.64
20000 kPa, x2 = 0.4794	712.84	682.52	650.15	616.43	580.87
20000 kPa, x2 = 0.715	794.78	–	700.42	–	589.3
30000 kPa, x2 = 0.2322	667.86	–	627.12	–	584.81
30000 kPa, x2 = 0.4794	728.81	701.65	674.04	645.49	616.95
30000 kPa, x2 = 0.715	817.62	–	738.09	–	653.81
40000 kPa, x2 = 0.2322	678.47	–	640.44	–	602.48
40000 kPa, x2 = 0.4794	742.52	717.56	692.66	667.35	642.35
40000 kPa, x2 = 0.715	836.27	–	765.65	–	694.03
50000 kPa, x2 = 0.2322	687.34	–	652.04	–	616.98
50000 kPa, x2 = 0.4794	754.67	731.07	708.18	685.08	662.49
50000 kPa, x2 = 0.715	852	–	787.84	–	–
60000 kPa, x2 = 0.2322	695.74	–	662.33	–	–
60000 kPa, x2 = 0.4794	764.81	742.9	721.35	700	–
60000 kPa, x2 = 0.715	866.13	–	806.49	–	–
70000 kPa, x2 = 0.2322	703.24	–	671.53	–	–
70000 kPa, x2 = 0.4794	774.33	753.65	733.06	713.41	–
70000 kPa, x2 = 0.715	878.47	–	822.63	–	–
80000 kPa, x2 = 0.2322	710.1	–	679.91	–	–
80000 kPa, x2 = 0.4794	783.23	763.35	744.07	724.94	–
80000 kPa, x2 = 0.715	890.87	–	836.62	–	–
90000 kPa, x2 = 0.2322	716.71	–	687.47	–	–
90000 kPa, x2 = 0.4794	791.49	772.13	753.75	735.81	–
90000 kPa, x2 = 0.715	901.14	–	849.86	–	–
100000 kPa, x2 = 0.2322	723.23	–	694.73	–	–
100000 kPa, x2 = 0.4794	798.9	780.58	762.74	745.33	–
100000 kPa, x2 = 0.715	910.69	–	861.47	–	–
120000 kPa, x2 = 0.2322	734.32	–	707.88	–	–
120000 kPa, x2 = 0.4794	812.9	795.54	778.9	762.5	–
120000 kPa, x2 = 0.715	928.62	–	882.45	–	–
140000 kPa, x2 = 0.2322	744.8	–	719.63	–	–
140000 kPa, x2 = 0.4794	825.4	809.12	793	777.74	–
140000 kPa, x2 = 0.715	944.48	–	900.69	–	–
160000 kPa, x2 = 0.2322	754.11	–	730.08	–	–
160000 kPa, x2 = 0.4794	836.77	820.91	805.87	791.24	–
160000 kPa, x2 = 0.715	958.48	–	917.22	–	–
180000 kPa, x2 = 0.2322	762.53	–	739.97	–	–
180000 kPa, x2 = 0.4794	847.4	832.12	817.41	803.57	–
180000 kPa, x2 = 0.715	971.36	–	931.83	–	–
200000 kPa, x2 = 0.2322	770.7	–	748.41	–	–
200000 kPa, x2 = 0.4794	856.48	842.22	828.26	815.1	–
200000 kPa, x2 = 0.715	983.53	–	945.52	–	–
